Assay results as given in PubChem BioAssay (NCI).
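Protocol summary: plate cells (96-well), add compound at 5 concentrations, incubate 48 h, interpolate endpoints linearly. Definition used: TGI = concentration required for complete inhibition of growth.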

Tests used:
Assay in all cases: NCI tumour cell line growth inhibition, 48 h
[1] = system: DLD-1 colon
[2] = system: DMS 273 small cell lung
[3] = system: HOP-18 NSCLC
[4] = system: KM20L2 colon
[5] = system: M19-MEL melanoma
[6] = system: P388/ADR leukemia
[7] = system: SN12K1 renal
[8] = system: SNB-78 CNS
[9] = system: XF 498 CNS
[10] = system: 786-0 renal
[11] = system: DMS 114 small cell lung
[12] = system: LXFL 529 NSCLC

Structure (SMILES) | TGI [1] [µM] | TGI [2] [µM] | TGI [3] [µM] | TGI [4] [µM] | TGI [5] [µM] | TGI [6] [µM] | TGI [7] [µM] | TGI [8] [µM] | TGI [9] [µM] | TGI [10] [µM] | TGI [11] [µM] | TGI [12] [µM]
CC(C(=O)O)c1cnn(-c2ccccc2)c1-n1cccc1 (stereo not given) | > 100 | > 100 | > 100 | > 100 | > 100 | > 100 | > 100 | > 100 | > 100 | – | – | –
Cc1cc(NS(=O)(=O)c2ccc(N=Nc3c(O)c(C(=O)O)cc4ccccc34)cc2)nc(C)n1 | – | – | – | – | – | – | – | – | – | > 100 | – | –
CC[C@]12C=CCN3CC[C@@]4(c5ccc(OC)cc5N(C)[C@H]4[C@@](O)(C(=O)OC)[C@@H]1OC(C)=O)[C@@H]32 | > 200 | > 200 | > 200 | > 164 | > 63.2 | > 200 | > 200 | > 200 | > 200 | – | > 200 | –
O=c1c2ccccc2nnn1-c1n[nH]c2ccccc12 | – | – | – | – | – | – | – | – | – | > 100 | – | –
C[N+](C)(N)CCC[N+](C)(C)N | – | – | – | – | – | – | – | – | – | > 100 | – | –
CC(C)CCN=c1cc2n(-c3ccc(Cl)cc3)c3ccccc3nc-2cc1Nc1ccc(Cl)cc1 | 68.4 | 56.4 | 56.6 | 19.7 | 20.2 | 10.2 | 23.7 | > 100 | 20.6 | – | 7.63 | –
Oc1ccc2ccccc2c1N=Nc1ccc(F)cc1 | – | > 100 | > 100 | > 100 | > 100 | – | – | – | – | > 100 | > 100 | > 100
CC[N+](C)(CC)Cc1ccccc1[N+](=O)[O-] | – | – | – | – | – | – | – | – | – | > 100 | – | –
COc1ccc2c(c1)CCCc1cn[nH]c1-2 | > 100 | > 100 | > 100 | > 100 | > 100 | > 100 | > 100 | > 100 | > 100 | – | > 100 | –
